Some results are limits rather than exact numbers.

Data on 1 compound can be found in paper PMC6273209, “Evaluation of the Enantiomer Specific Biokinetics and Radiation Doses of [^18F]Fluspidine—A New Tracer in Clinical Translation for Imaging of σ1 Receptors” (Molecules, 2016).

Data set [1] is described as follows: Acute toxicity study, single intravenous injection. The following applies: single intravenous administration, Wistar rats, day 2 and day 15; highest tested dose. Type of data set: in vivo. The text has this:
Supplementary Materials: Evaluation of the Enantiomer Specific Biokinetics and Radiation Doses of [18F]Fluspidine—A New Tracer in Clinical
Translation for Imaging of σ1 Receptors […]
Supplemental Methods and Results
Animal Toxicity Study of (S)-(−)-Fluspidine
The purpose of this study was to assess the acute toxicity of (S)-(−)-fluspidine when administered by a single intravenous injection to rats followed by an observation period of 2 or 15 day (in accordance with EU cGLP). Briefly, the study was performed with 4 test groups, including 1 control (saline and dimethylsulfoxide) and 3 dose groups (6.2, 62 and 620 µg/kg, (S)- (−)ﬂuspidine), with Wistar rats (60 m, 60 f, 12 weeks) divided into two experiments: day 2 (40 males and 40 females) and day 15 (20 males and 20 females). The animals were weighted and allocated to the test groups based on their actual body weights. The animals were sacrificed at two time periods (day 2 and day 15 after test item administration) and then examined macroscopically and histopathologically. In addition the following parameters were evaluated: mortality, clinical observation (spasms, tremor and hyperactivity), body weights, food consumption, haematology (white blood cells, red blood cells, hemoglobin, hematocrit, mean corpuscular volume, mean corpuscular hemoglobin, platelets, lympohcytes, neutrophils, eosinophils, basophils, monocytes), clinical chemistry (alkaline phosphatase, aspartate aminotransferase, alanine aminotransferase, glucose, cholesterol, triacylglycerols, creatinine, urea, bilirubin, albumin, calcium, phosphorus, sodium, potassium chloride), pathology and histopathology. […]
in either gender were detected. The food consumption corresponded with body weight development. All haematology parameter´s values on day 2 and day 15 were within physiological range for this species. Individual divergences of some values of the haematology parameters were slight and not connected with treatment.
There were no findings in clinical chemistry parameters which could be definitively considered as adverse. The average values of all test groups were within the historical control ranges. Occasional changes had no dose relationship, they were considered to be a result of intraindividual and interindividual variability for this species. […]
histopathological parameters on day 2 and day 15. The no observed effect level (NOEL) of (S)- (−)-fluspidine after single intravenous administration in this study for both day 2 and day 15 was determined to be 620 µg/kg.

In data set [2] the target is σ1 receptors. The arrangement: method as in PMID 24130175. To be noted: read-out: Ki (affinity towards σ1 receptors); cited from earlier work.

For the compound `FCC[C@@H]1OC2(CCN(Cc3ccccc3)CC2)c2ccccc21` [(S)-(−)-[^18F]fluspidine], the “no observed effect level (NOEL)” value in data set [1] was ≥ 0.6 mg/kg. For the same compound, the Ki in data set [2] is 2.3 nM.

As usually defined, the Ki is the equilibrium dissociation constant of an inhibitor or competing ligand from its target.
